Active and inactive are the calls of the source. No cut-off for these calls is given here.
What was measured:
[1] = target: T1, Protein deacetylase HDAC6 (Homo sapiens, UniProt Q9UBN7); assay: Inhibition of human recombinant HDAC6 using RHKKAcAMC as substrate by fluorescence assay
T1 sequence (Q9UBN7 whole entry): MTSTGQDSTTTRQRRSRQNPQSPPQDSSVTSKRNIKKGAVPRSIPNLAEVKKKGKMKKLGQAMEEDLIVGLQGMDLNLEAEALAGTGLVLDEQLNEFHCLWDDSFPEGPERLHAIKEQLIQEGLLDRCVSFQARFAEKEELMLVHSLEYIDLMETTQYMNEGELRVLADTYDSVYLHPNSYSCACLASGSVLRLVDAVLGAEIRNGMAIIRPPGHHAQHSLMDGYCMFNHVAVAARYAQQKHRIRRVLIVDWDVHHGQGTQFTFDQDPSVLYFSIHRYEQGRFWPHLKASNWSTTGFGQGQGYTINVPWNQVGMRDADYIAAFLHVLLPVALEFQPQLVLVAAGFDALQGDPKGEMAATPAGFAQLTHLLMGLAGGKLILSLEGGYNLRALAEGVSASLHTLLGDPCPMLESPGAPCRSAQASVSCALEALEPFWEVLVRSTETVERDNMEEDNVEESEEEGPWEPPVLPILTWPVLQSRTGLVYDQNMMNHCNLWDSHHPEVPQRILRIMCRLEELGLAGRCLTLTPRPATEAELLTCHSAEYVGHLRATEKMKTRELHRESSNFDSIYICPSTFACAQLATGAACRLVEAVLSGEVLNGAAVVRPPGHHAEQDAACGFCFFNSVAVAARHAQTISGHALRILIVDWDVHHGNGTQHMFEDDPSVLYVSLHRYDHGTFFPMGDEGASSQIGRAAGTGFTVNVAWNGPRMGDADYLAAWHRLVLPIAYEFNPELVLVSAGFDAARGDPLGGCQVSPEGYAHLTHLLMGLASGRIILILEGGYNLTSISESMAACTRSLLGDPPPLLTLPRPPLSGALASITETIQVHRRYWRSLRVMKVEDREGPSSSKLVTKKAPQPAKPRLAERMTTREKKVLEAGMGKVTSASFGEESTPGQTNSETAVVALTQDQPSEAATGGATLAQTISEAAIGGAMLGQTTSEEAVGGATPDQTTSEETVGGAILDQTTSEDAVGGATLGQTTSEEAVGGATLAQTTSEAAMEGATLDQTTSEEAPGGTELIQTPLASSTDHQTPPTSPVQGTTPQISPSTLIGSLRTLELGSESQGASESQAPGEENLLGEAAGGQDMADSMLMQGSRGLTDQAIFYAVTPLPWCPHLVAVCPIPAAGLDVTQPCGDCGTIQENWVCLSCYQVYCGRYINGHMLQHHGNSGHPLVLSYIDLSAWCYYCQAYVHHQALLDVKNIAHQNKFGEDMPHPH

[2] = test system: MV4-11; assay: Inhibition of class 1 HDAC in human MV4-11 cells assessed as hyperacetylation of histone H3 at 200 nM after 24 hrs by Western blot analysis; format: cell-based
[3] = target: T2, Histone deacetylase 8 (Homo sapiens, UniProt Q9BY41); assay: Inhibition of human recombinant HDAC8 using RHKAcKAcAMC as substrate by fluorescence assay
T2 sequence (Q9BY41 whole entry): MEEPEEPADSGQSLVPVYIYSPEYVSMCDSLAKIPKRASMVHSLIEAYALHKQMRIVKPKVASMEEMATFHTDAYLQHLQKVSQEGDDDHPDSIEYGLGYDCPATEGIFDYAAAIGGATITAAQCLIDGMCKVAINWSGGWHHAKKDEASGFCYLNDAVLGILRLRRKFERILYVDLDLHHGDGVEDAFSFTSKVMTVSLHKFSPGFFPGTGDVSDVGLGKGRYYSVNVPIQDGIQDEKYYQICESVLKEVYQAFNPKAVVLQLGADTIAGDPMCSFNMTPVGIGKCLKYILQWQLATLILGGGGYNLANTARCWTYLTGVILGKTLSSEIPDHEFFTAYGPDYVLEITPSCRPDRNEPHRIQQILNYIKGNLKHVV

[4] = target: Histone deacetylase 1 (Homo sapiens, UniProt Q13547); assay: Inhibition of human recombinant HDAC1 using RHKKAcAMC as substrate by fluorescence assay
Chain of Histone deacetylase 1 (Q13547 whole entry): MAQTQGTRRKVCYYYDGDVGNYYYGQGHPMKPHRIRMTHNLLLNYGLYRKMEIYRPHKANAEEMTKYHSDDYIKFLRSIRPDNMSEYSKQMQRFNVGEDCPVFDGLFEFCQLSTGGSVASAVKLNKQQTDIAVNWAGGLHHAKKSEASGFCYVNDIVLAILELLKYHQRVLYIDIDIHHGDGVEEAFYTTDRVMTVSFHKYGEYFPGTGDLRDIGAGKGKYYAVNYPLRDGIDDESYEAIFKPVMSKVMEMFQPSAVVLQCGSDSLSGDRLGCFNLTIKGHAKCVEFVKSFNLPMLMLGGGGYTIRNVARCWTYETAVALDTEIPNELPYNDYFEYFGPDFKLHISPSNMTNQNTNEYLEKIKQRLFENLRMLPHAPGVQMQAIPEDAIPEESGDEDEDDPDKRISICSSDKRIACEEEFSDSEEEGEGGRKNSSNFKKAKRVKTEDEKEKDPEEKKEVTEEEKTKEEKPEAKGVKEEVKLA

[5] = target: Histone deacetylase 2 (Homo sapiens, UniProt Q92769); assay: Inhibition of human recombinant HDAC2 using RHKKAcAMC as substrate by fluorescence assay
Chain of Histone deacetylase 2 (Q92769 whole entry): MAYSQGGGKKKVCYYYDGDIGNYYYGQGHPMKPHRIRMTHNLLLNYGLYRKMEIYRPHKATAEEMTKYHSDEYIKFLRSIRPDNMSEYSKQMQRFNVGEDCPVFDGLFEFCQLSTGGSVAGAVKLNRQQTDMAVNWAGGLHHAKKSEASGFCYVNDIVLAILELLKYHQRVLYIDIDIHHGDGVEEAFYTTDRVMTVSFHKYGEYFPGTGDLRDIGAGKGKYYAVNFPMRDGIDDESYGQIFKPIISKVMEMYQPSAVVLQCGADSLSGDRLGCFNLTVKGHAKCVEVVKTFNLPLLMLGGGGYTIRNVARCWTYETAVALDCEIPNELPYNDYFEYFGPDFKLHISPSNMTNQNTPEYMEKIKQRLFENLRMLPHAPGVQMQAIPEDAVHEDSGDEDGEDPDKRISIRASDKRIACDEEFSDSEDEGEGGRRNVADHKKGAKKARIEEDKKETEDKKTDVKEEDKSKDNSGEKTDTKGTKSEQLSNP

[6] = test system: MV4-11; assay: Cell cycle arrest in human MV4-11 cells up to 1 uM after 24 to 48 hrs by propidium iodide staining based flow cytometry; format: functional
[7] = target: T3, Polyamine deacetylase HDAC10 (Homo sapiens, UniProt Q969S8); assay: Inhibition of human recombinant HDAC10 using RHKKAcAMC as substrate by fluorescence assay
T3 sequence (Q969S8 whole entry): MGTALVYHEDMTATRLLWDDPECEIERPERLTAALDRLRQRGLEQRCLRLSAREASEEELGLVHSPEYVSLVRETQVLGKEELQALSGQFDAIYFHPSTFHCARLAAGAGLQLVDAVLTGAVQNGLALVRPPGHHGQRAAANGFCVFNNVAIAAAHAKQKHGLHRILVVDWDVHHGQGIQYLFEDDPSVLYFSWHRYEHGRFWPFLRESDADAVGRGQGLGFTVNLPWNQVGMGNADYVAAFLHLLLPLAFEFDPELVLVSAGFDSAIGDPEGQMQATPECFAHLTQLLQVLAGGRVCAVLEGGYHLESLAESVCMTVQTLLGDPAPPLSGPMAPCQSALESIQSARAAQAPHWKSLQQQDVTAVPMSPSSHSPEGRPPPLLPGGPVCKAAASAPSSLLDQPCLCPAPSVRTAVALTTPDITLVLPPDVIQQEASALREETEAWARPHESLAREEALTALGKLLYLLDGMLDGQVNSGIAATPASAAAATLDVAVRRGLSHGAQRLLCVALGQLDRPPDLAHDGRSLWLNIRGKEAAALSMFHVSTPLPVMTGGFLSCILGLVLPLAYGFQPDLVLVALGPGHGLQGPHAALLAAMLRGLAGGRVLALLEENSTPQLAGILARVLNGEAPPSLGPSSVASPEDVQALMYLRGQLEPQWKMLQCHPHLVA

[8] = test system: MV4-11; assay: Induction of apoptosis in human MV4-11 cells up to 1 uM after 24 to 48 hrs by Annexin V-PI staining based flow cytometry; format: functional, cell-based
[9] = target: Histone deacetylase 4 (Homo sapiens, UniProt P56524); assay: Inhibition of human recombinant HDAC4 using fluorogenic trifluoroacetyl lysine as substrate by fluorescence assay
Chain of Histone deacetylase 4 (P56524 whole entry): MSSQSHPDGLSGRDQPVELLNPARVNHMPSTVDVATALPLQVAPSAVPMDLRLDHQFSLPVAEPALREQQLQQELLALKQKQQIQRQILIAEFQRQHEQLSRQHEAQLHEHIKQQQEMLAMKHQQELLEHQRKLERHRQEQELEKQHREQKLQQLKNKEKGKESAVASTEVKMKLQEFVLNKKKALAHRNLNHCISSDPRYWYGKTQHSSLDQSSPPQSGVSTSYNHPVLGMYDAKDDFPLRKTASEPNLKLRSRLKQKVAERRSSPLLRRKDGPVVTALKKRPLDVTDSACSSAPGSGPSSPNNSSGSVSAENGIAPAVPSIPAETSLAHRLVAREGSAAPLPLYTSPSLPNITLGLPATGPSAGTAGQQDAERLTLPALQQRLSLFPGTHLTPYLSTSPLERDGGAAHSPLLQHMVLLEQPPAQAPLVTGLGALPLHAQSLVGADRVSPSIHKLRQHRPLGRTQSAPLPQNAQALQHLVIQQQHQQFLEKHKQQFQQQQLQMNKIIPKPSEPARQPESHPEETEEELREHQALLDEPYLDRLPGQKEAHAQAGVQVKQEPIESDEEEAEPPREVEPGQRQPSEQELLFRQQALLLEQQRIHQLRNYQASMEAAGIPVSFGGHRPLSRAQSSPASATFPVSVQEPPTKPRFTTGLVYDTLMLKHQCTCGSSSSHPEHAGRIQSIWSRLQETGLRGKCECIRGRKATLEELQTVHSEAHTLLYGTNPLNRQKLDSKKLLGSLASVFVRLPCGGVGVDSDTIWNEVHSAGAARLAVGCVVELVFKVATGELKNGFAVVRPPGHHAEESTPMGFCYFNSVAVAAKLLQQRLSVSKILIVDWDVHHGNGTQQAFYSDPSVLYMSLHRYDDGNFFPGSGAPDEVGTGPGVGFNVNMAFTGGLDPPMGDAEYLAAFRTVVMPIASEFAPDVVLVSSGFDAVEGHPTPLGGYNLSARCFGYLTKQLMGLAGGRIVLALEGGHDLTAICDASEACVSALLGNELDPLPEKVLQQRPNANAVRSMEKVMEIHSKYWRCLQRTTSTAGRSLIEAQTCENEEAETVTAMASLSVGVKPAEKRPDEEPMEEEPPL

[10] = target: T4, Protein deacetylase HDAC6 (Homo sapiens) (UniProt Q9UBN7); assay: Inhibition of HDAC6 in human MV4-11 cells assessed as accumulation of acetylated alpha-tubulin at 200 nM by Western blot analysis; format: cell-based; details: TDE = time-dependent effect
T4 sequence (whole entry): T1 sequence (Q9UBN7 whole entry)

[11] = test system: MV4-11; assay: Inhibition of class 1 HDAC in human MV4-11 cells assessed as hyperacetylation of histone H3 at higher concentration after 24 hrs by Western blot analysis; format: cell-based
[12] = target: T4, Protein deacetylase HDAC6 (Homo sapiens); assay: Inhibition of HDAC6 in human MV4-11 cells assessed as accumulation of acetylated alpha-tubulin at 50 nM after 24 hrs by Western blot analysis; format: cell-based
[13] = organism: Homo sapiens; assay: Selectivity ratio of IC50 for human recombinant HDAC4 to IC50 for human recombinant HDAC6
[14] = target: T4, Protein deacetylase HDAC6 (Homo sapiens); assay: Inhibition of HDAC6 in human MV4-11 cells assessed as accumulation of acetylated alpha-tubulin at 200 nM after 10 to 1440 mins by Western blot analysis; format: cell-based
[15] = organism: Homo sapiens; assay: Selectivity ratio of IC50 for human recombinant HDAC8 to IC50 for human recombinant HDAC6
[16] = organism: Homo sapiens; assay: Selectivity ratio of IC50 for human recombinant HDAC1 to IC50 for human recombinant HDAC6
[17] = organism: Homo sapiens; assay: Selectivity ratio of IC50 for human recombinant HDAC2 to IC50 for human recombinant HDAC6
[18] = test system: MV4-11; assay: Induction of apoptosis in human MV4-11 cells at 30 nM after 24 to 48 hrs by Annexin V-PI staining based flow cytometry; format: functional, cell-based
[19] = test system: MV4-11; assay: Induction of apoptosis in human MV4-11 cells at 5 uM after 24 to 48 hrs by Annexin V-PI staining based flow cytometry; format: functional, cell-based

SMILES | IC50 [1] [nM] | inhibition [2] | also measured
CN1CC(=O)N2Cc3c(c4ccccc4n3Cc3ccc(C(=O)NO)cc3)CC2C1=O (centres undefined) | 13.6 | – | –
CN1C(=O)C2Cc3c(n(Cc4ccc(C(=O)NO)cc4)c4ccccc34)CN2C1=O (centres undefined) | 2.38 | – | –
CC(C)CN1CC(=O)N2Cc3c(c4ccccc4n3Cc3ccc(C(=O)NO)cc3)CC2C1=O (centres undefined) | 3.78 | Active | –
CCCCN1CC(=O)N2Cc3c(c4ccccc4n3Cc3ccc(C(=O)NO)cc3)CC2C1=O (centres undefined) | 3.26 | Active | –
CCCN1CC(=O)N2[C@H](Cc3c(n(Cc4ccc(C(=O)NO)cc4)c4ccccc34)[C@H]2C)C1=O | 18.5 | – | –
CCCN1CC(=O)N2[C@H](Cc3c(n(Cc4ccc(C(=O)NO)cc4)c4ccccc34)[C@@H]2C)C1=O | 1.8 | – | IC50 [3]: 168 nM; IC50 [4]: 1050 nM; IC50 [5]: 1870 nM; Activity [6]: inactive; IC50 [7]: 1510 nM; Activity [8]: inactive; IC50 [9]: 1440 nM
CCCN1CC(=O)N2Cc3c(c4ccccc4n3Cc3ccc(C(=O)NO)cc3)CC2C1=O (centres undefined) | 3.73 | Active | inhibition [10]: Tde; inhibition [11]: Active; IC50 [3]: 747 nM; IC50 [4]: 8450 nM; inhibition [12]: Active; IC50 [5]: 3340 nM; Activity [6]: inactive; IC50 [7]: 39500 nM; Ratio IC50 [13]: 5500; inhibition [14]: Active; Activity [8]: inactive; Ratio IC50 [15]: 200; Ratio IC50 [16]: 2260; Ratio IC50 [17]: 900; IC50 [9]: 20500 nM
CC(C)CCN1CC(=O)N2Cc3c(c4ccccc4n3Cc3ccc(C(=O)NO)cc3)CC2C1=O (centres undefined) | 24.1 | Active | –
CCN1C(=O)C2Cc3c(n(Cc4ccc(C(=O)NO)cc4)c4ccccc34)CN2C1=O (centres undefined) | 4.54 | Active | –
CCCN1CC(=O)N2[C@@H](Cc3c(n(Cc4ccc(C(=O)NO)cc4)c4ccccc34)[C@@H]2C)C1=O | 83.5 | – | –
CCCN1CC(=O)N2Cc3c(c4cc(OCc5ccccc5)ccc4n3Cc3ccc(C(=O)NO)cc3)CC2C1=O (centres undefined) | 1.25 | – | –
CCCN1CC(=O)N2[C@H](C)c3c(c4ccccc4n3Cc3ccc(C(=O)NO)cc3)C[C@H]2C1=O | 60.7 | – | –
CCCN1C(=O)C2Cc3c(n(Cc4ccc(C(=O)NO)cc4)c4ccccc34)CN2C1=O (centres undefined) | 10.1 | Active | –
CCN1CC(=O)N2Cc3c(c4ccccc4n3Cc3ccc(C(=O)NO)cc3)CC2C1=O (centres undefined) | 8.03 | Active | –
CCCCN1C(=O)C2Cc3c(n(Cc4ccc(C(=O)NO)cc4)c4ccccc34)CN2C1=O (centres undefined) | 9.32 | – | –
CCCN1CC(=O)N2Cc3c(c4cc(OC)ccc4n3Cc3ccc(C(=O)NO)cc3)CC2C1=O (centres undefined) | 1.66 | – | –
Cc1[nH]c2ccccc2c1CCNCc1ccc(/C=C/C(=O)NO)cc1 | – | – | Activity [18]: Active
CCCN1CC(=O)N2Cc3c(c4cc(O)ccc4n3Cc3ccc(C(=O)NO)cc3)CC2C1=O (centres undefined) | 0.89 | – | –
Nc1ccccc1NC(=O)c1ccc(CNC(=O)OCc2cccnc2)cc1 | – | Active | Activity [19]: Active

From ChEMBL document CHEMBL4270518 (Eur J Med Chem, 2018)
